Measured values: PubChem BioAssay (NCI)
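Step 1: Grow cells in 96-well plates. Step 2: Expose to compound for 48 hours at 5 concentrations. Step 3: Interpolate endpoints linearly; if unreached, use highest concentration. At the TGI there is no net growth.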

Legend:
Test in all cases: inhibition of tumour cell growth, NCI panel, 48 h
NCI/ADR-RES ovarian = system: NCI/ADR-RES ovarian
SNB-75 CNS = system: SNB-75 CNS
HL-60(TB) leukemia = system: HL-60(TB) leukemia
UACC-257 melanoma = system: UACC-257 melanoma
NCI-H460 lung = system: NCI-H460 lung
NCI-H226 lung = system: NCI-H226 lung
EKVX NSCLC = system: EKVX NSCLC
OVCAR-4 ovarian = system: OVCAR-4 ovarian
DMS 273 small cell lung = system: DMS 273 small cell lung
U251 CNS = system: U251 CNS
MCF7 breast = system: MCF7 breast
HOP-62 NSCLC = system: HOP-62 NSCLC
MDA-MB-231 breast = system: MDA-MB-231 breast
UACC-62 melanoma = system: UACC-62 melanoma
ACHN renal = system: ACHN renal
PC-3 prostate = system: PC-3 prostate
A498 renal = system: A498 renal
OVCAR-5 ovarian = system: OVCAR-5 ovarian
MALME-3M melanoma = system: MALME-3M melanoma
SNB-19 CNS = system: SNB-19 CNS
HT29 colon = system: HT29 colon
SK-OV-3 ovarian = system: SK-OV-3 ovarian
DU-145 prostate = system: DU-145 prostate
SF-295 CNS = system: SF-295 CNS
SN12C renal = system: SN12C renal
MDA-N = system: MDA-N
SF-268 CNS = system: SF-268 CNS
M14 melanoma = system: M14 melanoma
TK-10 renal = system: TK-10 renal
RXF 393 renal = system: RXF 393 renal
SK-MEL-2 melanoma = system: SK-MEL-2 melanoma
COLO 205 colon = system: COLO 205 colon
HS 578T breast = system: HS 578T breast
SW-620 colon = system: SW-620 colon
DMS 114 small cell lung = system: DMS 114 small cell lung
CCRF-CEM leukemia = system: CCRF-CEM leukemia
CAKI-1 renal = system: CAKI-1 renal
MDA-MB-435 = system: MDA-MB-435
HCT-15 colon = system: HCT-15 colon
M19-MEL melanoma = system: M19-MEL melanoma
T-47D breast = system: T-47D breast
OVCAR-3 ovarian = system: OVCAR-3 ovarian
SK-MEL-28 melanoma = system: SK-MEL-28 melanoma
MOLT-4 leukemia = system: MOLT-4 leukemia
HCT-116 colon = system: HCT-116 colon
IGROV1 ovarian = system: IGROV1 ovarian
OVCAR-8 ovarian = system: OVCAR-8 ovarian
HCC-2998 colon = system: HCC-2998 colon
NCI-H23 lung = system: NCI-H23 lung
KM20L2 colon = system: KM20L2 colon
LOX IMVI melanoma = system: LOX IMVI melanoma
A549 NSCLC = system: A549 NSCLC
NCI-H522 lung = system: NCI-H522 lung
HOP-92 NSCLC = system: HOP-92 NSCLC
LXFL 529 NSCLC = system: LXFL 529 NSCLC
DLD-1 colon = system: DLD-1 colon
XF 498 CNS = system: XF 498 CNS
SK-MEL-5 melanoma = system: SK-MEL-5 melanoma
K-562 leukemia = system: K-562 leukemia
HOP-18 NSCLC = system: HOP-18 NSCLC
SF-539 CNS = system: SF-539 CNS
UO-31 renal = system: UO-31 renal
BT-549 breast = system: BT-549 breast
RPMI-8226 leukemia = system: RPMI-8226 leukemia
KM12 colon = system: KM12 colon
SNB-78 CNS = system: SNB-78 CNS
786-0 renal = system: 786-0 renal
SR leukemia = system: SR leukemia

C=C1C(=O)OC2CC3(C)OC3CC/C(C)=C/C(OC(C)=O)C12 (stereo not given)
TGI (NCI/ADR-RES ovarian): 30.1 µM
TGI (SNB-75 CNS): 22 µM
TGI (HL-60(TB) leukemia): 3.4 µM
TGI (UACC-257 melanoma): 22.6 µM
TGI (NCI-H460 lung): 31.6 µM
TGI (NCI-H226 lung): 26.8 µM
TGI (EKVX NSCLC): 32.7 µM
TGI (OVCAR-4 ovarian): 16.1 µM
TGI (DMS 273 small cell lung): 31.2 µM
TGI (U251 CNS): 33.5 µM
TGI (MCF7 breast): 18 µM
TGI (HOP-62 NSCLC): 33.5 µM
TGI (MDA-MB-231 breast): 24.8 µM
TGI (UACC-62 melanoma): 22.9 µM
TGI (ACHN renal): 23.3 µM
TGI (PC-3 prostate): 26 µM
TGI (A498 renal): 29.9 µM
TGI (OVCAR-5 ovarian): 23 µM
TGI (MALME-3M melanoma): 5.9 µM
TGI (SNB-19 CNS): 31 µM
TGI (HT29 colon): 13.5 µM
TGI (SK-OV-3 ovarian): 37 µM
TGI (DU-145 prostate): 28.4 µM
TGI (SF-295 CNS): 27.4 µM
TGI (SN12C renal): 26.3 µM
TGI (MDA-N): 18.7 µM
TGI (SF-268 CNS): 34.8 µM
TGI (M14 melanoma): 9.86 µM
TGI (TK-10 renal): 12.8 µM
TGI (RXF 393 renal): 16.4 µM
TGI (SK-MEL-2 melanoma): 31.5 µM
TGI (COLO 205 colon): 4.03 µM
TGI (HS 578T breast): 42.9 µM
TGI (SW-620 colon): 4.89 µM
TGI (DMS 114 small cell lung): 23 µM
TGI (CCRF-CEM leukemia): 12.7 µM
TGI (CAKI-1 renal): 6.24 µM
TGI (MDA-MB-435): 25.2 µM
TGI (HCT-15 colon): 19.3 µM
TGI (M19-MEL melanoma): 22.3 µM
TGI (T-47D breast): 15.9 µM
TGI (OVCAR-3 ovarian): 34.7 µM
TGI (SK-MEL-28 melanoma): 16.8 µM
TGI (MOLT-4 leukemia): 13.9 µM
TGI (HCT-116 colon): 14.6 µM
TGI (IGROV1 ovarian): 35.3 µM
TGI (OVCAR-8 ovarian): 13.6 µM
TGI (HCC-2998 colon): 31.6 µM
TGI (NCI-H23 lung): 27.6 µM
TGI (KM20L2 colon): 20 µM
TGI (LOX IMVI melanoma): 12.8 µM
TGI (A549 NSCLC): 33.7 µM
TGI (NCI-H522 lung): 2.64 µM
TGI (HOP-92 NSCLC): 4.69 µM
TGI (LXFL 529 NSCLC): 5.92 µM
TGI (DLD-1 colon): 7.81 µM
TGI (XF 498 CNS): 4.12 µM
TGI (SK-MEL-5 melanoma): 20.4 µM
TGI (K-562 leukemia): 15.4 µM
TGI (HOP-18 NSCLC): 23.5 µM
TGI (SF-539 CNS): 16.8 µM
TGI (UO-31 renal): 26.5 µM
TGI (BT-549 breast): 22.2 µM
TGI (RPMI-8226 leukemia): 14.3 µM
TGI (KM12 colon): 39.9 µM
TGI (SNB-78 CNS): 35.1 µM
TGI (786-0 renal): 14.2 µM

CCCCNC(=O)/N=C/c1c(O)c2ccccc2oc1=O
TGI (HL-60(TB) leukemia): 57.4 µM
TGI (UACC-257 melanoma): > 100 µM
TGI (NCI-H460 lung): > 100 µM
TGI (NCI-H226 lung): > 100 µM
TGI (EKVX NSCLC): > 100 µM
TGI (OVCAR-4 ovarian): > 100 µM
TGI (DMS 273 small cell lung): > 100 µM
TGI (HOP-62 NSCLC): > 100 µM
TGI (UACC-62 melanoma): > 100 µM
TGI (ACHN renal): > 100 µM
TGI (OVCAR-5 ovarian): > 100 µM
TGI (SNB-19 CNS): > 100 µM
TGI (SR leukemia): > 100 µM
TGI (HT29 colon): > 100 µM
TGI (SN12C renal): > 100 µM
TGI (SF-268 CNS): > 100 µM
TGI (M14 melanoma): > 100 µM
TGI (TK-10 renal): > 100 µM
TGI (RXF 393 renal): 79.5 µM
TGI (SK-MEL-2 melanoma): 66.1 µM
TGI (COLO 205 colon): > 100 µM
TGI (SW-620 colon): > 100 µM
TGI (DMS 114 small cell lung): > 100 µM
TGI (HCT-15 colon): > 100 µM
TGI (M19-MEL melanoma): > 100 µM
TGI (SK-MEL-28 melanoma): > 100 µM
TGI (MOLT-4 leukemia): > 100 µM
TGI (HCT-116 colon): > 100 µM
TGI (IGROV1 ovarian): > 100 µM
TGI (OVCAR-8 ovarian): > 100 µM
TGI (HCC-2998 colon): > 100 µM
TGI (NCI-H23 lung): > 100 µM
TGI (KM20L2 colon): > 100 µM
TGI (LOX IMVI melanoma): > 100 µM
TGI (A549 NSCLC): > 100 µM
TGI (HOP-92 NSCLC): > 100 µM
TGI (LXFL 529 NSCLC): > 100 µM
TGI (XF 498 CNS): 65.1 µM
TGI (SK-MEL-5 melanoma): > 100 µM
TGI (SF-539 CNS): > 100 µM
TGI (UO-31 renal): 56.3 µM
TGI (RPMI-8226 leukemia): > 100 µM
TGI (SNB-78 CNS): > 100 µM
